Measurements from ChEMBL document CHEMBL5523766 (J Med Chem, 2024).
pIC50: −log10 of the molar value.

Legend:
[1] = test system: CAPAN-1; test: Antiproliferative activity against human CAPAN-1 cells assessed as inhibition of cell growth incubated for 72 hrs by MTS assay; format: functional, cell-based; conditions: CAPAN-1, 72 h
[2] = test system: Granta-519; test: Induction of apoptosis in human Granta-519 cells assessed as early apoptotic cells at 2000 nM incubated for 48 hrs by Annexin-V-FITC/propidium iodide staining based flow cytometry (reference value: 3.75 %); format: functional
[3] = test system: NCI-H446; test: Antiproliferative activity against human NCI-H446 cells assessed as inhibition of cell growth incubated for 72 hrs by MTS assay; format: functional, cell-based; conditions: NCI-H446, 72 h
[4] = test system: Granta-519; test: Induction of apoptosis in human Granta-519 cells assessed as late apoptotic cells at 2000 nM incubated for 48 hrs by Annexin-V-FITC/propidium iodide staining based flow cytometry (reference value: 3.07 %); format: functional
[5] = test system: LoVo; test: Antiproliferative activity against human LoVo cells assessed as inhibition of cell growth incubated for 72 hrs by MTS assay; format: functional, cell-based
[6] = Tmax in BALB/c mouse at 75 mg/kg,po measured upto 24 hrs by LC-MS/MS analysis; format: ADME, organism-based; conditions: in vivo
[7] = test system: HCT-116; test: Antiproliferative activity against human HCT-116 cells assessed as inhibition of cell growth incubated for 72 hrs by MTS assay; format: functional, cell-based; conditions: HCT-116, 72 h
[8] = Half life in BALB/c mouse at 75 mg/kg,po measured upto 24 hrs by LC-MS/MS analysis; format: ADME, organism-based; conditions: in vivo
[9] = test system: Granta-519; test: Induction of cell cycle arrest in human Granta-519 cells assessed as accumulation of cells at S phase at 2000 nM incubated for 24 hrs by propidium iodide staining based flow cytometry (reference value: 44.81 %); format: functional
[10] = Brain to plasma ratio in ICR mouse at 50 mg/kg,po measured upto 24 hrs by LC-MS/MS analysis; format: ADME, organism-based
[11] = test system: PC-3; test: Antiproliferative activity against human PC-3 cells assessed as inhibition of cell growth incubated for 72 hrs by MTS assay; format: functional, cell-based; conditions: PC-3, 72 h
[12] = Cmax in BALB/c mouse at 75 mg/kg,po measured upto 24 hrs by LC-MS/MS analysis; format: ADME, organism-based; conditions: in vivo
[13] = test system: Granta-519; test: Induction of cell cycle arrest in human Granta-519 cells assessed as accumulation of cells at G1 phase at 2000 nM incubated for 24 hrs by propidium iodide staining based flow cytometry (reference value: 45.83 %); format: functional
[14] = test system: DLD-1; test: Antiproliferative activity against human DLD-1 cells assessed as inhibition of cell growth incubated for 72 hrs by MTS assay; format: functional, cell-based; conditions: DLD-1, 72 h
[15] = AUCinfinity in BALB/c mouse at 75 mg/kg,po measured upto 24 hrs by LC-MS/MS analysis; format: ADME, organism-based; conditions: in vivo
[16] = test system: Granta-519; test: Antiproliferative activity against human Granta-519 cells assessed as inhibition of cell growth incubated for 72 hrs by MTS assay; format: functional, cell-based; conditions: Granta-519, 72 h
[17] = test system: Granta-519; test: Induction of apoptosis in human Granta-519 cells assessed as viable cells at 2000 nM incubated for 48 hrs by Annexin-V-FITC/propidium iodide staining based flow cytometry (reference value: 92.7 %); format: functional; conditions: read-out: Activity
[18] = test system: SUD4; test: Antiproliferative activity against human SU-DHL-4 cells assessed as inhibition of cell growth incubated for 72 hrs by MTS assay; format: functional, cell-based; conditions: SU-DHL-4, 72 h
[19] = test system: OCI-Ly10; test: Antiproliferative activity against human OCI-Ly10 cells assessed as inhibition of cell growth incubated for 72 hrs by MTS assay; format: functional, cell-based; conditions: OCI-Ly10, 72 h
[20] = test system: Granta-519; test: Induction of apoptosis in human Granta-519 cells assessed as necrotic cells at 2000 nM incubated for 48 hrs by Annexin-V-FITC/propidium iodide staining based flow cytometry (reference value: 0.429 %); format: functional
[21] = test system: HT-29; test: Antiproliferative activity against human HT-29 cells assessed as inhibition of cell growth incubated for 72 hrs by MTS assay; format: functional, cell-based; conditions: HT-29, 72 h
[22] = test system: A2780; test: Antiproliferative activity against human A2780 cells assessed as inhibition of cell growth incubated for 72 hrs by MTS assay; format: functional, cell-based; conditions: A2780, 72 h

pIC50 [3]: 5.71
pIC50 [5]: 5.94
Tmax [6]: 0.25 h
pIC50 [7]: 5.95
half-life [8]: 1.93 h
BPR [10]: 6.6%
pIC50 [11]: 4.95
Cmax [12]: 12000 ng/mL
pIC50 [14]: 5.28
AUC(0-inf) [15]: 41600 ng·h/mL
pIC50 [19]: 6.28
pIC50 [21]: 5.59
pIC50 [22]: 6.21
SMILES: C[C@@H]1COCCN1c1cc(C2([S@](C)(=N)=O)CC2)nc(-c2cc[nH]c3nccc2-3)n1 [CERALASERTIB]
pIC50 [1]: 5.26
Activity [2]: 8.66%
Activity [4]: 10.3%
Activity [9]: 67.69%
Activity [13]: 30.16%
pIC50 [16]: 6.26
viability at 2 µM [17]: 78%
pIC50 [18]: 5.65
Activity [20]: 3.07%
